1 compound from patent publication US7109174B2, “Anticonvulsant derivatives useful for preventing the development of type II diabetes mellitus and syndrome X” (Ortho-McNeil Pharmaceutical, Inc., priority 2000, dated 2006) can be followed below.

This assay deals with Female db/db mice. Briefly: Oral glucose tolerance test (fasted) in female db/db mice after 11 days oral dosing. The following applies: for Oral Glucose Tolerance Test (fasted) Plasma Glucose: ± sem. The assay is classed as in vivo. The protocol: Female db/db mice (C57BLK S/J-m^+/^+ Lepr^db Jackson Labs, Bar Harbor, Me.), 7–8 weeks of age, were housed four per cage in solid-bottomed shoe box cages. Room temperature was maintained at 68–72° F. and humidity at 50–65%. Room lighting was on a 12-hour light/12-hour dark cycle. The mice were maintained on NIH Rat and Mouse/Auto 6F reduced fat diet #5K52 (PMI Nutrition Int'l Inc.). Food and water were supplied ad libitum.
Test compound and vehicle were dosed orally and prepared as suspensions in 0.5% hydroxypropylmethylcellulose (Dow Chemical, Midland, Mich.). The dosing volume was 10 mL/kg of body weight.
Different groups of female db/db mice (7–8/group) were orally gavaged daily for 11 days with either 0.5% methylcellulose in dH2O (vehicle), topiramate at 30 or 100 mg/kg/day or 2,3:4,5-bis-O-(1-methylethylidene)-β-L-fructopyranose sulfamate (hereinafter referred to as Compound V) at 30 or 100 mg/kg/day. On day 10, the animals were fasted for 20 hours before being tested for oral glucose tolerance (OGT). On day 11, four hours after the final dose for each group, an oral glucose tolerance test (OGTT) was performed by oral glucose administration of 2 g/kg. Animals were bled through tail clip at 0 (before glucose), 30, 60 and 120 min after glucose challenge. The blood samples were collected into heparinized CB microvettes and then put on ice. The plasma samples will be assayed for plasma glucose determination by using SIGMA DIAGNOSTICS Trinder reagent (Sigma, St. Louis, Mo.). Statistical analysis was performed using the program Instat (Graphpad, Monrovia, Calif.) and performing one-way ANOVA with a Dunnett's multiple comparison test.
Following the above described procedure, the effect of topiramate and compound V on oral glucose tolerance in female db/db mice, 7 mice/group, was determined, with results as listed in Table 9. The abbreviation N represents the number of animals per study group.

With `CC1(C)O[C@H]2[C@H](CO[C@]3(COS(N)(=O)=O)OC(C)(C)O[C@H]23)O1` [Compound V, 2,3:4,5-bis-O-(1-methylethylidene)-β-L-fructopyranose sulfamate], the Oral Glucose Tolerance Test (fasted) Plasma Glucose runs as follows: (30 mg/kg/day, 0 min (before glucose 2 g/kg)) 221 ± 22.9 mg/dL; (30 mg/kg/day, 30 min after glucose 2 g/kg) 441 ± 35.7 mg/dL; (30 mg/kg/day, 60 min after glucose 2 g/kg) 244 ± 21.6 mg/dL; (30 mg/kg/day, 120 min after glucose 2 g/kg) 213 ± 28.7 mg/dL; (100 mg/kg/day, 0 min (before glucose 2 g/kg)) 152 ± 27.3 mg/dL; (100 mg/kg/day, 30 min after glucose 2 g/kg) 449 ± 42.6 mg/dL. Besides, the Oral Glucose Tolerance Test (fasted) Plasma Glucose stood at 319 ± 52.7 mg/dL (100 mg/kg/day, 60 min after glucose 2 g/kg) and 153 ± 33 mg/dL (100 mg/kg/day, 120 min after glucose 2 g/kg). Moreover, the “elevated blood glucose levels induced by oral glucose challenge” value (30 or 100 mg/kg/day) is reported as “suppressed”. For the same compound, the fasting glucose levels entry (30 or 100 mg/kg/day) is recorded as “decreased”.
